Test results taken from patent US20250346616A1 (DIZAL (JIANGSU) PHARMACEUTICAL CO., LTD., priority 2022, published 2025).

How the values were obtained:
Recombinant ROCK2 = Recombinant ROCK2 (Homo sapiens (Human), UniProt O75116); test: Lance Ultra Kinase Assay, ROCK2 inhibition; assay type: biochemical; details: ATP at Km, 30 min pre-incubation, 1 h reaction
Protocol: The inhibition potency of compounds against these enzymes was assessed using Lance Ultra Kinase Assay. In brief, recombinant kinases were pre-incubated in the presence or absence of compound at room temperature for 30 minutes. The reaction was initiated by the addition of the ATP (Km) and substrate peptide which could be phosphorylated by kinases in the reaction. After 1 h incubation, the reaction was stopped by the addition of the detection reagent mix containing EDTA. The fluorescence was measured at 615 nm and 665 nm, respectively with excitation wavelength at 320 nm. The calculated signal ratio of 665 nm/615 nm is proportional to the kinase activity.

Recombinant ROCK1 = Recombinant ROCK1 (Homo sapiens (Human), UniProt Q13464); test: Lance Ultra Kinase Assay, ROCK1 inhibition; assay type: biochemical; details: ATP at Km, 30 min pre-incubation, 1 h reaction
Recombinant ROCK1, sequence (Q13464 whole entry): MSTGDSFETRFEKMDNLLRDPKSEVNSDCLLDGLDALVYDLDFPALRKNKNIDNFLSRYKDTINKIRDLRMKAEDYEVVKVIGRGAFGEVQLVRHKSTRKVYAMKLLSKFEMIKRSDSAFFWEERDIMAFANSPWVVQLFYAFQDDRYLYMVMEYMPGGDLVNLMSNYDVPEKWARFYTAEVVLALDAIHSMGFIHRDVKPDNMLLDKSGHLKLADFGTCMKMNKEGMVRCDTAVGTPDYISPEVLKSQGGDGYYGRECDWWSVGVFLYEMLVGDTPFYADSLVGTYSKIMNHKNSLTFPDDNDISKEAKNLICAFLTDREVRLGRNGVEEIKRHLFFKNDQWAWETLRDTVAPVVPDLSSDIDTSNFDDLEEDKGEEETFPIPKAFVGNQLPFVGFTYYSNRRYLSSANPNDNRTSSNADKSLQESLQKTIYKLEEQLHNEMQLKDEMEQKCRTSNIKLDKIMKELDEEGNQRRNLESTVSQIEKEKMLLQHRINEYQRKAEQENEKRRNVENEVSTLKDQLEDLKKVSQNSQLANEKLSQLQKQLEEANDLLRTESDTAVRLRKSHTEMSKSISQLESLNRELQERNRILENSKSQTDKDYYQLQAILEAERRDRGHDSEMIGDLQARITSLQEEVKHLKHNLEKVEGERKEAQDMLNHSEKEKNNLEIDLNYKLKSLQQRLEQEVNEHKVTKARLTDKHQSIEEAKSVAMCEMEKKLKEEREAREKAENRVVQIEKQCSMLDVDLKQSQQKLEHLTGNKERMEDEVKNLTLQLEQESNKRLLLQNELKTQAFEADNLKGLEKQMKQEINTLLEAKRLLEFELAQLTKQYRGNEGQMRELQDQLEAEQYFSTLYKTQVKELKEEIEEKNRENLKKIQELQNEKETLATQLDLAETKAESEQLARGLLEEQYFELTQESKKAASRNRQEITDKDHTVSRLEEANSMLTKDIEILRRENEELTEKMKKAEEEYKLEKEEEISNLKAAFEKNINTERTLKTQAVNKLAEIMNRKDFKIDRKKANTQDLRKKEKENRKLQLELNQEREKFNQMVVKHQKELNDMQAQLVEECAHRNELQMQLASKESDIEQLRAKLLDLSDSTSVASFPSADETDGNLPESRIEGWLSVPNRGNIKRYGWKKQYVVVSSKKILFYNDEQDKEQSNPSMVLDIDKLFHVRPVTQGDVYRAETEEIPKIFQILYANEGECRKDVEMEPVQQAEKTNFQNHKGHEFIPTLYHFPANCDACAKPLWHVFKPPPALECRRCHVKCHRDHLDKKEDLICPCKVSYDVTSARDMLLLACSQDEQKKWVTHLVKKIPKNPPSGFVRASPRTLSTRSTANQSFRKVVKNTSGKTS

Recombinant ROCK2, sequence (O75116 whole entry): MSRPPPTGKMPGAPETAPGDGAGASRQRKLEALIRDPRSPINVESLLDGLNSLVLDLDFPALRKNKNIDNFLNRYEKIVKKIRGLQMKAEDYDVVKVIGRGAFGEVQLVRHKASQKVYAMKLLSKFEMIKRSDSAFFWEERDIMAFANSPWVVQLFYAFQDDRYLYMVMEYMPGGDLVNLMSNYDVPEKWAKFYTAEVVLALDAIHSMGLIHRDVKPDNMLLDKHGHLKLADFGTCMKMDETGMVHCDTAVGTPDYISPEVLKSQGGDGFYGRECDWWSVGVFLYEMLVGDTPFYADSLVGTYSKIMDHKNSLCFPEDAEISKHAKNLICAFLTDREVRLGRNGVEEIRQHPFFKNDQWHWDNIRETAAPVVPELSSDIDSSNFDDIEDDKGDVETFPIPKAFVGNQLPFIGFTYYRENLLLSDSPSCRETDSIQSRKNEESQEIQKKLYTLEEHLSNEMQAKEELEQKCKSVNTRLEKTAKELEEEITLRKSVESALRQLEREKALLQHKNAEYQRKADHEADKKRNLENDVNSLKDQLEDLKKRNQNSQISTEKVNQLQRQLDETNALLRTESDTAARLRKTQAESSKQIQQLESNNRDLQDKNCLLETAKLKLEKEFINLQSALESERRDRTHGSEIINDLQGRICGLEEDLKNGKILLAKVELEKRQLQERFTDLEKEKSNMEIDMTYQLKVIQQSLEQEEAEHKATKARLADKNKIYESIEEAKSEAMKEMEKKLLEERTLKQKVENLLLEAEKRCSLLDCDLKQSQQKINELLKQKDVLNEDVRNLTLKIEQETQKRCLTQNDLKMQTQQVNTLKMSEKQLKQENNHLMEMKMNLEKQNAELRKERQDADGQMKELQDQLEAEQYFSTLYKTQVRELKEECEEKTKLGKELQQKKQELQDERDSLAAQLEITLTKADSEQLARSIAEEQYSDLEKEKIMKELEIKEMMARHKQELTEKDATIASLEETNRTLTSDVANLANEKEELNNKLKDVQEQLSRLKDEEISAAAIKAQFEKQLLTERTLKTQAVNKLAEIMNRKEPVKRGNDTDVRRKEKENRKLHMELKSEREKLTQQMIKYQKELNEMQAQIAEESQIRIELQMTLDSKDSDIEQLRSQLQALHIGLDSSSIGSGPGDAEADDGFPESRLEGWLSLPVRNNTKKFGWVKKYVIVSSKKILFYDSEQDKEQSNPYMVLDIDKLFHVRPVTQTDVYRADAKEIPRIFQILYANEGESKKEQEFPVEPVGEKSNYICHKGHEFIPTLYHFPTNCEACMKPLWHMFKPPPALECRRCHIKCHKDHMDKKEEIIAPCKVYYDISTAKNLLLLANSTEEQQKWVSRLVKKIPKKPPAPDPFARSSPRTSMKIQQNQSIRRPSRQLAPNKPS

Structure (SMILES)	IC50 (Recombinant ROCK2) [nM]	IC50 (Recombinant ROCK1) [nM]
N[C@@H](Cc1c[nH]cn1)C(=O)Nc1cccc2c(-c3cn[nH]c3)c[nH]c12 [Example 108, (2S)-2-amino-3-(1H-imidazol-4-yl)-N-[3-(1H-pyrazol-4-yl)-1H-indol-7-yl]propanamide]	–	98
NCC(NC(=O)c1cccc2c(-c3cn[nH]c3)c[nH]c12)c1ccc(CO)cc1 (racemic) [Example 146, N-(2-amino-1-(4-(hydroxymethyl)phenyl)ethyl)-3-(1H-pyrazol-4-yl)-1H-indole-7-carboxamide]	4.9	18
NC[C@H](Cc1ccccc1)C(=O)Nc1cccc2c(-c3cn[nH]c3)c[nH]c12 [Example 54, (2S)-3-amino-2-benzyl-N-[3-(1H-pyrazol-4-yl)-1H-indol-7-yl]propanamide]	0.09	0.18
N[C@@H](Cc1c[nH]c2ccccc12)C(=O)Nc1cccc2c(-c3cn[nH]c3)c[nH]c12 [Example 109, (2S)-2-amino-3-(1H-indol-3-yl)-N-[3-(1H-pyrazol-4-yl)-1H-indol-7-yl]propanamide]	11	15
CN(C)Cc1cccc(C(CN)C(=O)Nc2cccc3c(-c4cn[nH]c4)c[nH]c23)c1 (racemic) [Example 78, 3-amino-2-{3-[(dimethylamino)methyl]phenyl}-N-[3-(1H-pyrazol-4-yl)-1H-indol-7-yl]propanamide]	16	34
COc1cccc(C(CN)C(=O)Nc2cccc3c(-c4cn[nH]c4)c[nH]c23)c1 (racemic) [Example 16, N-(3-(1H-pyrazol-4-yl)-1H-indol-7-yl)-3-amino-2-(3-methoxyphenyl)propanamide]	0.37	0.84
CN1CCN(C(C(=O)Nc2cccc3c(-c4cn[nH]c4)c[nH]c23)c2ccccc2)CC1 (single isomer, unassigned) [Example 47, N-(3-(1H-pyrazol-4-yl)-1H-indol-7-yl)-2-(4-methylpiperazin-1-yl)-2-phenylacetamide]	121	201
NCC(C(=O)Nc1cccc2c(-c3cn[nH]c3)c[nH]c12)c1ccc(CO)cc1 (racemic) [Example 1, N-(3-(1H-pyrazol-4-yl)-1H-indol-7-yl)-3-amino-2-(4-(hydroxymethyl)phenyl)propanamide]	0.27	0.59
COc1cccc(C(CN2CCN(C)CC2)C(=O)Nc2cccc3c(-c4cn[nH]c4)c[nH]c23)c1 (single isomer, unassigned) [Example 36, N-(3-(1H-pyrazol-4-yl)-1H-indol-7-yl)-2-(3-methoxyphenyl)-3-(4-methylpiperazin-1-yl)propanamide]	174	321
N[C@H](C(=O)Nc1cccc2c(-c3cn[nH]c3)c[nH]c12)c1cccnc1 (single isomer, unassigned) [Example 132, N-(3-(1H-pyrazol-4-yl)-1H-indol-7-yl)-2-amino-2-(pyridin-3-yl) acetamide]	0.39	0.76
COc1ccc(C(CN)NC(=O)c2cccc3c(-c4cn[nH]c4)c[nH]c23)cc1 (single isomer, unassigned) [Example 144, N-(2-amino-1-(4-methoxyphenyl)ethyl)-3-(1H-pyrazol-4-yl)-1H-indole-7-carboxamide]	32	60
NCC(C(=O)Nc1cccc2c(-c3cn[nH]c3)c[nH]c12)C1CCOC1 (racemic) [Example 96, N-(3-(1H-pyrazol-4-yl)-1H-indol-7-yl)-3-amino-2-(tetrahydrofuran-3-yl)propanamide]	4	7.3
NCC(NC(=O)c1cccc2c(-c3cn[nH]c3)c[nH]c12)c1ccccc1 (racemic) [Example 134, N-(2-amino-1-phenylethyl)-3-(1H-pyrazol-4-yl)-1H-indole-7-carboxamide]	0.88	2.6
COC[C@H](C(=O)Nc1cccc2c(-c3cn[nH]c3)c[nH]c12)N1CCN(C)CC1 [Example 121, (2R)-3-methoxy-2-(4-methylpiperazin-1-yl)-N-[3-(1H-pyrazol-4-yl)-1H-indol-7-yl]propanamide]	–	75
Cc1n[nH]cc1-c1c[nH]c2c(NC(=O)[C@H](CN)c3ccccc3)cccc12 [Example 55, (S)-3-amino-N-(3-(3-methyl-1H-pyrazol-4-yl)-1H-indol-7-yl)-2-phenylpropanamide]	–	2.9
NC[C@H](C(=O)Nc1cccc2c(-c3cn[nH]c3)c[nH]c12)c1ccccc1 [Example 14, (R)-N-(3-(1H-pyrazol-4-yl)-1H-indol-7-yl)-3-amino-2-phenylpropanamide]	–	2.2
NC[C@@H](C(=O)Nc1ncnc2c(-c3cn[nH]c3)c[nH]c12)c1ccccc1 [Example 155, (2S)-3-amino-2-phenyl-N-[7-(1H-pyrazol-4-yl)-5H-pyrrolo[3,2-d]pyrimidin-4-yl]propanamide]	–	0.96
NC[C@@H](C(=O)Nc1cccc2c(-c3c[nH]nc3F)c[nH]c12)c1ccccc1 [Example 57, (S)-3-amino-N-(3-(3-fluoro-1H-pyrazol-4-yl)-1H-indol-7-yl)-2-phenylpropanamide]	–	2.7

The next lines start with the values.

IC50 (Recombinant ROCK2) [nM]	IC50 (Recombinant ROCK1) [nM]	Structure (SMILES)
32	84	NCc1ccc(C(CN)C(=O)Nc2cccc3c(-c4cn[nH]c4)c[nH]c23)cc1 (racemic) [Example 77, 3-amino-2-[4-(aminomethyl)phenyl]-N-[3-(1H-pyrazol-4-yl)-1H-indol-7-yl]propanamide]
0.84	1.6	CN1CCN(C(C(=O)Nc2cccc3c(-c4cn[nH]c4)c[nH]c23)c2ccccc2)CC1 (single isomer, unassigned) [Example 48, N-(3-(1H-pyrazol-4-yl)-1H-indol-7-yl)-2-(4-methylpiperazin-1-yl)-2-phenylacetamide]
3.7	6	CC(N)(C(=O)Nc1cccc2c(-c3cn[nH]c3)c[nH]c12)c1ccccc1 (racemic) [Example 107, 2-amino-2-phenyl-N-[3-(1H-pyrazol-4-yl)-1H-indol-7-yl]propanamide]
48	136	N#Cc1ccc(C(CN)C(=O)Nc2cccc3c(-c4cn[nH]c4)c[nH]c23)cc1 (single isomer, unassigned) [Example 58, N-(3-(1H-pyrazol-4-yl)-1H-indol-7-yl)-3-amino-2-(4-cyanophenyl)propanamide]
315	397	CN1CCC(C(NC(=O)c2cccc3c(-c4cn[nH]c4)c[nH]c23)C2CCCCC2)CC1 (racemic) [Example 143, N-[cyclohexyl (1-methylpiperidin-4-yl)methyl]-3-(1H-pyrazol-4-yl)-1H-indole-7-carboxamide]
20	82	CNC(=O)c1ccc(C(CN)C(=O)Nc2cccc3c(-c4cn[nH]c4)c[nH]c23)cc1 (racemic) [Example 73, 4-(2-amino-1-{[3-(1H-pyrazol-4-yl)-1H-indol-7-yl]carbamoyl}ethyl)-N-methylbenzamide]
23	73	COc1cccc(C(CN2CCN(C)CC2)NC(=O)c2cccc3c(-c4cn[nH]c4)c[nH]c23)c1 (single isomer, unassigned) [Example 138, N-(1-(3-methoxyphenyl)-2-(4-methylpiperazin-1-yl)ethyl)-3-(1H-pyrazol-4-yl)-1H-indole-7-carboxamide]
0.66	1.2	NCC(C(=O)Nc1cccc2c(-c3cn[nH]c3)c[nH]c12)c1cccc(Cl)c1 (racemic) [Example 89, 3-amino-2-(3-chlorophenyl)-N-[3-(1H-pyrazol-4-yl)-1H-indol-7-yl]propanamide]
–	111	O=C(Nc1cccc2c(-c3cn[nH]c3)c[nH]c12)[C@@H]1CCCN1 [Example 128, (2S)-N-[3-(1H-pyrazol-4-yl)-1H-indol-7-yl]pyrrolidine-2-carboxamide]
9.3	17	COCCOc1ccc(C(CN)C(=O)Nc2cccc3c(-c4cn[nH]c4)c[nH]c23)cc1 (racemic) [Example 88, 3-amino-2-[4-(2-methoxyethoxy)phenyl]-N-[3-(1H-pyrazol-4-yl)-1H-indol-7-yl]propanamide]
0.22	0.32	CNC(=O)OCc1cccc(C(CN)C(=O)Nc2cccc3c(-c4cn[nH]c4)c[nH]c23)c1 (single isomer, unassigned) [Example 50, 3-(1-((3-(1H-pyrazol-4-yl)-1H-indol-7-yl)amino)-3-amino-1-oxopropan-2-yl)benzyl methylcarbamate]
0.52	0.81	NCC(C(=O)Nc1cccc2c(-c3cn[nH]c3)c[nH]c12)c1ccc(F)cc1 (racemic) [Example 85, 3-amino-2-(4-fluorophenyl)-N-[3-(1H-pyrazol-4-yl)-1H-indol-7-yl]propanamide]
0.91	5.3	COc1ccc(C(CN)C(=O)Nc2cccc3c(-c4cn[nH]c4)c[nH]c23)cc1 (racemic) [Example 90, 3-amino-2-(4-methoxyphenyl)-N-[3-(1H-pyrazol-4-yl)-1H-indol-7-yl]propanamide]
12	22	N[C@@H](C(=O)Nc1cccc2c(-c3cn[nH]c3)c[nH]c12)c1cccnc1 (single isomer, unassigned) [Example 131, N-(3-(1H-pyrazol-4-yl)-1H-indol-7-yl)-2-amino-2-(pyridin-3-yl) acetamide]
–	1190	Cc1n[nH]c(C)c1-c1c[nH]c2c(NC(=O)[C@H](CN)c3ccccc3)cccc12 [Example 56, (2S)-3-amino-N-[3-(3,5-dimethyl-1H-pyrazol-4-yl)-1H-indol-7-yl]-2-phenyl-propanamide]
–	20	N[C@@H](C(=O)Nc1cccc2c(-c3cn[nH]c3)c[nH]c12)c1ccccc1 [Example 8, (2R)-2-amino-2-phenyl-N-[3-(1H-pyrazol-4-yl)-1H-indol-7-yl]acetamide]
–	6.3	N[C@H](Cc1ccccc1)C(=O)Nc1cccc2c(-c3cn[nH]c3)c[nH]c12 [Example 126, (R)-N-(3-(1H-pyrazol-4-yl)-1H-indol-7-yl)-2-amino-3-phenylpropanamide]
–	1.4	NC[C@@H](C(=O)Nc1cccc2c(-c3cn[nH]c3)c[nH]c12)c1ccccc1 [Example 15, (S)—N-(3-(1H-pyrazol-4-yl)-1H-indol-7-yl)-3-amino-2-phenylpropanamide]
